Laboratory results as given in PMC5218480 (PLoS ONE, 2017).

Test system: MV-4-11 cells
Assay: Gene expression microarray analysis (Affymetrix PrimeView) and GSEA
Assay type: cell-based, human
Parameters: RFU PODN (11730768_x_at) / Fold change /veh PODN (11730768_x_at) / RFU LINC00158 (11744669_a_at) / Fold change /veh LINC00158 (11744669_a_at) / RFU DUSP10 (11751237_a_at) / Fold change /veh DUSP10 (11751237_a_at) / RFU ID3 (11757404_x_at) / Fold change /veh ID3 (11757404_x_at) / RFU PLEKHG5 (11737974_s_at) / Fold change /veh PLEKHG5 (11737974_s_at) / RFU LRRC4B (11730491_at) / Fold change /veh LRRC4B (11730491_at) / RFU GIMAP4 (11747438_a_at) / Fold change /veh GIMAP4 (11747438_a_at) / RFU KRT8 (11758183_x_at) / Fold change /veh KRT8 (11758183_x_at) / RFU CNN1 (11734310_a_at) / Fold change /veh CNN1 (11734310_a_at) / RFU VPS37D (11726825_at) / Fold change /veh VPS37D (11726825_at) / RFU C10orf10 (11716522_x_at) / Fold change /veh C10orf10 (11716522_x_at) / RFU KIR2DL2 /// KIR2DL4 /// KIR2DL5A /// KIR2DL5B /// KIR2DS1 /// KIR2DS2 /// KIR2DS3 /// KIR2DS4 /// KIR3DL3 /// KIR3DL3 /// KIR3DS1 (11738374_at) / Fold change /veh KIR2DL2 /// KIR2DL4 /// KIR2DL5A /// KIR2DL5B /// KIR2DS1 /// KIR2DS2 /// KIR2DS3 /// KIR2DS4 /// KIR3DL3 /// KIR3DL3 /// KIR3DS1 (11738374_at) / RFU C1QL1 (11718748_at) / Fold change /veh C1QL1 (11718748_at) / RFU TMPRSS4 (11747572_a_at) / Fold change /veh TMPRSS4 (11747572_a_at) / RFU HAMP (11756126_x_at) / Fold change /veh HAMP (11756126_x_at) / RFU RNFT2 (11725882_a_at) / Fold change /veh RNFT2 (11725882_a_at) / RFU NR4A2 (11747474_a_at) / Fold change /veh NR4A2 (11747474_a_at) / RFU ABCC12 (11746883_a_at) / Fold change /veh ABCC12 (11746883_a_at) / RFU TMEM136 (11760407_x_at) / Fold change /veh TMEM136 (11760407_x_at) / RFU CLDN22 /// WWC2 (11732394_at) / Fold change /veh CLDN22 /// WWC2 (11732394_at) / RFU HLA-DPB1 (11760878_x_at) / Fold change /veh HLA-DPB1 (11760878_x_at) / RFU SPINT1 (11716480_a_at) / Fold change /veh SPINT1 (11716480_a_at) / RFU GAP43 (11754022_s_at) / Fold change /veh GAP43 (11754022_s_at) / RFU A4GNT (11735810_at) / Fold change /veh A4GNT (11735810_at) / RFU PRB3 (11715151_x_at) / Fold change /veh PRB3 (11715151_x_at) / RFU TUBB4B (11761932_at) / Fold change /veh TUBB4B (11761932_at) / RFU CAPN14 (11732068_a_at) / Fold change /veh CAPN14 (11732068_a_at) / RFU TMCC2 (11721928_a_at) / Fold change /veh TMCC2 (11721928_a_at) / RFU IRGQ (11745062_a_at) / Fold change /veh IRGQ (11745062_a_at) / RFU FAM174B (11720279_a_at) / Fold change /veh FAM174B (11720279_a_at) / RFU TMPRSS4 (11748680_a_at) / Fold change /veh TMPRSS4 (11748680_a_at) / RFU FAM212B (11763350_a_at) / Fold change /veh FAM212B (11763350_a_at) / RFU PLEKHG5 (11743358_a_at) / Fold change /veh PLEKHG5 (11743358_a_at) / RFU ZSCAN30 (11745921_a_at) / Fold change /veh ZSCAN30 (11745921_a_at) / RFU CMKLR1 (11741424_a_at) / Fold change /veh CMKLR1 (11741424_a_at) / RFU LOC101060620 /// MAPK8IP1 (11723275_at) / Fold change /veh LOC101060620 /// MAPK8IP1 (11723275_at) / RFU SPTSSB (11747773_x_at) / Fold change /veh SPTSSB (11747773_x_at) / RFU PRSS12 (11739890_at) / Fold change /veh PRSS12 (11739890_at) / RFU BIN1 (11741810_x_at) / Fold change /veh BIN1 (11741810_x_at) / RFU WNT11 (11732464_a_at) / Fold change /veh WNT11 (11732464_a_at) / RFU C10orf10 (11716521_a_at) / Fold change /veh C10orf10 (11716521_a_at) / RFU C5orf56 (11738089_at) / Fold change /veh C5orf56 (11738089_at) / RFU CYB561 (11721691_x_at) / Fold change /veh CYB561 (11721691_x_at) / RFU ANKRD19P (11752326_a_at) / Fold change /veh ANKRD19P (11752326_a_at) / RFU OR2T12 /// OR2T33 /// OR2T8 (11738714_s_at) / Fold change /veh OR2T12 /// OR2T33 /// OR2T8 (11738714_s_at) / RFU VCAN (11748164_a_at) / Fold change /veh VCAN (11748164_a_at) / RFU JSRP1 (11732532_at) / Fold change /veh JSRP1 (11732532_at) / RFU KRTAP10-11 (11738290_x_at) / Fold change /veh KRTAP10-11 (11738290_x_at) / RFU MYO3A (11730013_a_at) / Fold change /veh MYO3A (11730013_a_at) / RFU EBF3 (11725865_a_at) / Fold change /veh EBF3 (11725865_a_at) / RFU CAMK2N1 (11719241_x_at) / Fold change /veh CAMK2N1 (11719241_x_at) / RFU C5orf56 (11738088_a_at) / Fold change /veh C5orf56 (11738088_a_at) / RFU OLFML3 (11715873_a_at) / Fold change /veh OLFML3 (11715873_a_at) / RFU LOC100653217 /// NTM (11731650_a_at) / Fold change /veh LOC100653217 /// NTM (11731650_a_at) / RFU MAPK11 (11762145_a_at) / Fold change /veh MAPK11 (11762145_a_at) / RFU FIZ1 (11724087_x_at) / Fold change /veh FIZ1 (11724087_x_at) / RFU OASL (11726364_x_at) / Fold change /veh OASL (11726364_x_at) / RFU SOX15 (11748057_x_at) / Fold change /veh SOX15 (11748057_x_at) / RFU CD79A (11719716_a_at) / Fold change /veh CD79A (11719716_a_at) / RFU HIST1H1D (11736915_at) / Fold change /veh HIST1H1D (11736915_at) / RFU CASKIN2 (11723855_a_at) / Fold change /veh CASKIN2 (11723855_a_at) / RFU LOC730098 (11760151_x_at) / Fold change /veh LOC730098 (11760151_x_at) / RFU OR4N2 (11742367_at) / Fold change /veh OR4N2 (11742367_at) / RFU PRRT2 (11749266_a_at) / Fold change /veh PRRT2 (11749266_a_at) / RFU SNX32 (11753110_a_at) / Fold change /veh SNX32 (11753110_a_at) / RFU CDHR5 (11726645_a_at) / Fold change /veh CDHR5 (11726645_a_at) / RFU RCAN1 (11760418_a_at) / Fold change /veh RCAN1 (11760418_a_at) / RFU FAM167A (11723789_a_at) / Fold change /veh FAM167A (11723789_a_at) / RFU FAM26E (11764081_at) / Fold change /veh FAM26E (11764081_at) / RFU ISYNA1 (11749810_s_at) / Fold change /veh ISYNA1 (11749810_s_at) / RFU ACY1 (11761880_at) / Fold change /veh ACY1 (11761880_at) / RFU 11764098_at / Fold change /veh 11764098_at / RFU SAMD14 (11745864_x_at) / Fold change /veh SAMD14 (11745864_x_at) / RFU NPB (11741838_a_at) / Fold change /veh NPB (11741838_a_at) / RFU TMPRSS6 (11731388_a_at) / Fold change /veh TMPRSS6 (11731388_a_at) / RFU KRTAP10-2 (11738614_at) / Fold change /veh KRTAP10-2 (11738614_at) / RFU ARHGAP8 /// PRR5-ARHGAP8 (11727945_x_at) / Fold change /veh ARHGAP8 /// PRR5-ARHGAP8 (11727945_x_at) / RFU KRTAP5-7 /// NADSYN1 (11734609_at) / Fold change /veh KRTAP5-7 /// NADSYN1 (11734609_at) / RFU RASL12 (11751679_a_at) / Fold change /veh RASL12 (11751679_a_at) / RFU CDKN2B (11736163_a_at) / Fold change /veh CDKN2B (11736163_a_at) / RFU PRF1 (11729649_at) / Fold change /veh PRF1 (11729649_at) / RFU, ZNF638 /// ZNF638-IT1 / Fold change vs veh, ZNF638 /// ZNF638-IT1 / RFU, PANK3 / Fold change vs veh, PANK3 / RFU, SH3YL1 / Fold change vs veh, SH3YL1 / RFU, ZEB2 / Fold change vs veh, ZEB2 / RFU, NRIP1 / Fold change vs veh, NRIP1 / RFU, PTTG1IP / Fold change vs veh, PTTG1IP / RFU, CAPN2 / Fold change vs veh, CAPN2 / RFU, MED14 / Fold change vs veh, MED14 / RFU, SNORA58 / Fold change vs veh, SNORA58 / RFU, C1orf63 / Fold change vs veh, C1orf63 / RFU, LRRFIP1 / Fold change vs veh, LRRFIP1 / RFU, NDUFAF7 / Fold change vs veh, NDUFAF7 / RFU, SLC12A2 / Fold change vs veh, SLC12A2 / RFU, IBTK / Fold change vs veh, IBTK / RFU, ESF1 / Fold change vs veh, ESF1 / Fold change vs veh, TMEM50B / RFU, TAOK1 / Fold change vs veh, TAOK1 / RFU, ACBD3 / Fold change vs veh, ACBD3 / RFU, TMA16 / Fold change vs veh, TMA16 / RFU, RWDD3 / Fold change vs veh, RWDD3 / RFU, BCAT1 / Fold change vs veh, BCAT1 / RFU, EDEM3 / Fold change vs veh, EDEM3 / RFU, TMEM33 / Fold change vs veh, TMEM33 / RFU, WDR75 / Fold change vs veh, WDR75 / RFU, AHCTF1 / Fold change vs veh, AHCTF1 / RFU, TFRC / Fold change vs veh, TFRC / RFU, ZDHHC17 / Fold change vs veh, ZDHHC17 / RFU, NOM1 / Fold change vs veh, NOM1 / RFU, ARL8B / Fold change vs veh, ARL8B / RFU, ZBTB11 / Fold change vs veh, ZBTB11 / RFU, TAMM41 / Fold change vs veh, TAMM41 / RFU, KIAA1704 /// LOC100996395 / Fold change vs veh, KIAA1704 /// LOC100996395 / RFU, ING1 / Fold change vs veh, ING1 / RFU, TRMT61B / Fold change vs veh, TRMT61B / RFU, FUBP3 / Fold change vs veh, FUBP3 / RFU, TP53 / Fold change vs veh, TP53 / RFU, TNKS2 / Fold change vs veh, TNKS2 / RFU, ZFP14 / Fold change vs veh, ZFP14 / RFU, ACTR2 / Fold change vs veh, ACTR2 / RFU, PPP3R1 / Fold change vs veh, PPP3R1 / RFU, PIK3R1 / Fold change vs veh, PIK3R1 / RFU, HNRNPA1 / Fold change vs veh, HNRNPA1 / RFU, RNF170 / Fold change vs veh, RNF170 / RFU, ZNF28 / Fold change vs veh, ZNF28 / RFU, RNGTT / Fold change vs veh, RNGTT / RFU, OGT / Fold change vs veh, OGT / RFU, BRD1 / Fold change vs veh, BRD1 / RFU, MARS / Fold change vs veh, MARS / RFU, ZNF655 / Fold change vs veh, ZNF655 / RFU, FAHD1 / Fold change vs veh, FAHD1 / RFU, BDP1 / Fold change vs veh, BDP1 / RFU, LRRCC1 / Fold change vs veh, LRRCC1 / RFU, ARID1A / Fold change vs veh, ARID1A / RFU, ZNF146 / Fold change vs veh, ZNF146 / RFU, ZNF330 / Fold change vs veh, ZNF330 / RFU, GPN3 / Fold change vs veh, GPN3 / RFU, C9orf123 / Fold change vs veh, C9orf123 / RFU, N4BP2L2 / Fold change vs veh, N4BP2L2 / RFU, ARFIP1 / Fold change vs veh, ARFIP1 / RFU, FAM179B / Fold change vs veh, FAM179B / RFU, BCL10 / Fold change vs veh, BCL10 / RFU, UHRF1BP1L / Fold change vs veh, UHRF1BP1L / RFU, BET1 / Fold change vs veh, BET1 / RFU, CNOT2 / Fold change vs veh, CNOT2 / RFU, ZNF268 / Fold change vs veh, ZNF268 / Fold change vs veh, ZNF507 / RFU, DGCR2 / Fold change vs veh, DGCR2 / RFU, WDSUB1 / Fold change vs veh, WDSUB1 / Fold change vs veh, HSP90B1 /// MIR3652 / RFU, ADSS / Fold change vs veh, ADSS / RFU, GK / Fold change vs veh, GK / RFU, ZNF148 / Fold change vs veh, ZNF148 / RFU, TAF9 / Fold change vs veh, TAF9 / RFU, SLC1A5 / Fold change vs veh, SLC1A5 / RFU, SLMO2 / Fold change vs veh, SLMO2 / RFU, ABCC4 / Fold change vs veh, ABCC4 / RFU, LOC101060439 /// RAP1B / Fold change vs veh, LOC101060439 /// RAP1B / RFU, RFX7 / Fold change vs veh, RFX7 / RFU, GTPBP10 / Fold change vs veh, GTPBP10 / RFU, CNEP1R1 / Fold change vs veh, CNEP1R1 / RFU, BIVM-ERCC5 /// ERCC5 / Fold change vs veh, BIVM-ERCC5 /// ERCC5 / RFU, ILF3 / Fold change vs veh, ILF3 / RFU 11762660_at / Fold change /veh 11762660_at / RFU VCAN (11757783_s_at) / Fold change /veh VCAN (11757783_s_at) / RFU DDX43 (11728927_at) / Fold change /veh DDX43 (11728927_at) / RFU KRT8 (11758188_x_at) / Fold change /veh KRT8 (11758188_x_at) / RFU NKD1 (11759106_at) / Fold change /veh NKD1 (11759106_at) / RFU SRD5A1 (11742802_a_at) / Fold change /veh SRD5A1 (11742802_a_at) / RFU TPSAB1 /// TPSB2 (11721975_s_at) / Fold change /veh TPSAB1 /// TPSB2 (11721975_s_at) / RFU GSTM3 (11746129_a_at) / Fold change /veh GSTM3 (11746129_a_at) / RFU IL23R (11737362_x_at) / Fold change /veh IL23R (11737362_x_at) / RFU TMEM51 (11727254_a_at) / Fold change /veh TMEM51 (11727254_a_at) / RFU PIWIL2 (11732686_x_at) / Fold change /veh PIWIL2 (11732686_x_at) / RFU ORM1 (11744905_x_at) / Fold change /veh ORM1 (11744905_x_at) / RFU CCDC152 (11743942_at) / Fold change /veh CCDC152 (11743942_at) / RFU ECM1 (11717891_a_at) / Fold change /veh ECM1 (11717891_a_at) / RFU IL23R (11748794_a_at) / Fold change /veh IL23R (11748794_a_at) / RFU TNFAIP8L3 (11732012_x_at) / Fold change /veh TNFAIP8L3 (11732012_x_at) / RFU MBOAT4 (11741988_at) / Fold change /veh MBOAT4 (11741988_at) / RFU 11764193_at / Fold change /veh 11764193_at / RFU TMEM53 (11763286_at) / Fold change /veh TMEM53 (11763286_at) / RFU MAGEB2 (11727129_at) / Fold change /veh MAGEB2 (11727129_at) / RFU TMEM200A (11744735_a_at) / Fold change /veh TMEM200A (11744735_a_at) / RFU CCDC152 (11751479_a_at) / Fold change /veh CCDC152 (11751479_a_at) / RFU FAM211A (11726209_a_at) / Fold change /veh FAM211A (11726209_a_at) / RFU RGS16 (11746705_a_at) / Fold change /veh RGS16 (11746705_a_at) / RFU VCAN (11755009_s_at) / Fold change /veh VCAN (11755009_s_at) / RFU RHOB (11743442_s_at) / Fold change /veh RHOB (11743442_s_at) / RFU RGS16 (11720943_a_at) / Fold change /veh RGS16 (11720943_a_at) / RFU RGS16 (11720944_at) / Fold change /veh RGS16 (11720944_at) / RFU, VPS4B / Fold change vs veh, VPS4B / RFU, CREB1 / Fold change vs veh, CREB1 / RFU, DNAJC13 / Fold change vs veh, DNAJC13 / RFU, GNAQ / Fold change vs veh, GNAQ / RFU, CDK5R1 / Fold change vs veh, CDK5R1 / RFU, ZRANB3 / Fold change vs veh, ZRANB3 / RFU, CUL4A / Fold change vs veh, CUL4A / RFU, CCNY / Fold change vs veh, CCNY / RFU, UFL1 / Fold change vs veh, UFL1 / RFU, COG3 / Fold change vs veh, COG3 / RFU, DIAPH2 / Fold change vs veh, DIAPH2 / RFU, SKA2 / Fold change vs veh, SKA2 / RFU, AFF3 / Fold change vs veh, AFF3 / RFU, LMF1 / Fold change vs veh, LMF1 / RFU, IPO11 / Fold change vs veh, IPO11 / RFU, DFFB / Fold change vs veh, DFFB / RFU, FOXP1 / Fold change vs veh, FOXP1 / RFU, CARD8 / Fold change vs veh, CARD8 / RFU, STRN3 / Fold change vs veh, STRN3 / RFU, ADK / Fold change vs veh, ADK / RFU, RASSF2 / Fold change vs veh, RASSF2 / RFU, WIPF1 / Fold change vs veh, WIPF1 / RFU, LARP1B / Fold change vs veh, LARP1B / RFU, RASA1 / Fold change vs veh, RASA1 / RFU, RB1 / Fold change vs veh, RB1 / RFU, PPFIA1 / Fold change vs veh, PPFIA1 / RFU, MAT2A / Fold change vs veh, MAT2A / RFU, CCT5 / Fold change vs veh, CCT5 / RFU, WDR92 / Fold change vs veh, WDR92 / RFU, CUX1 / Fold change vs veh, CUX1 / RFU, TTC7A / Fold change vs veh, TTC7A / RFU, TMEM135 / Fold change vs veh, TMEM135 / RFU, DEPTOR / Fold change vs veh, DEPTOR / RFU, CPM / Fold change vs veh, CPM / RFU, DNAJB6 / Fold change vs veh, DNAJB6 / RFU, CACNA2D3 / Fold change vs veh, CACNA2D3 / RFU, DTX4 / Fold change vs veh, DTX4 / RFU, TFCP2 / Fold change vs veh, TFCP2 / RFU, GMCL1 /// GMCL1P1 / Fold change vs veh, GMCL1 /// GMCL1P1 / RFU, AEBP2 / Fold change vs veh, AEBP2 / RFU, SNHG1 /// SNORD22 /// SNORD25 /// SNORD26 /// SNORD27 /// SNORD28 /// SNORD29 /// SNORD31 / Fold change vs veh, SNHG1 /// SNORD22 /// SNORD25 /// SNORD26 /// SNORD27 /// SNORD28 /// SNORD29 /// SNORD31 / Fold change (Aza/veh), C12orf56 (ProbeSet 11735607_a_at) / Fold change (ACY-1035/veh), C12orf56 (ProbeSet 11735607_a_at) / Fold change (Aza/veh), FGFR1OP (ProbeSet 11751329_s_at) / Fold change (ACY-1035/veh), FGFR1OP (ProbeSet 11751329_s_at) / Fold change (Aza/veh), VPS36 (ProbeSet 11739960_a_at) / Fold change (ACY-1035/veh), VPS36 (ProbeSet 11739960_a_at) / RFU SYPL1 (11715823_x_at) / Fold change /veh SYPL1 (11715823_x_at) / RFU IGFBP7 (11715501_s_at) / Fold change /veh IGFBP7 (11715501_s_at) / RFU REEP3 (11722064_at) / Fold change /veh REEP3 (11722064_at) / RFU IGLL1 (11728026_x_at) / Fold change /veh IGLL1 (11728026_x_at): dose or concentration left out as unconfirmed
Conditions: ProbeSet 11755070_a_at; LIST D

## Nc1ccc(-c2cccs2)cc1NC(=O)c1ccc2c(c1)cc(C1CC1)n2CCN1CCOCC1 [ACY-1035]
  RFU, CARD8: 173.18 RFU
